{"source": "patent US12594296B2", "about": "“Methods for treatment or prevention of damage resulting from radiation, trauma or shock” (priority 2012, dated 2026)", "key": {"[1]": {"tested_on": "mice exposed to ionizing radiation", "experiment": "Total body irradiation study: survival and body weight (Example 1)", "assay_type": "in vivo", "conditions": "for Percent Dead Per Group: 50 mg/kg p.o. q.d. + 200 ppm in drinking water Days 1-18", "procedure": "Male mice were exposed to an acute irradiation dose on Day 0 of 0, 12.5, or 13.0 Gy at a rate of 1 Gy/min with lead shielding to the left hind limb. Starting 24 hours after irradiation, the mice were untreated or treated with PAAG or vehicle control, given with 50 mg/kg via oral gavage daily and dosed ad libitum in the drinking water (200 ppm PAAG) from days 1 to 18. The treatment groups are summarized on TABLE 1.\nThe total body irradiation study was performed as described above with control vehicle or PAAG (86 kDa and 30% functionalization) administered to the mice at the indicated final concentrations. […] As shown in the Kaplan-Meier Survival Plot in FIG. 1, there was no mortality in animals that were not irradiated. […] In fact, 88% of the treated animals survived while only 19% of the untreated animals survived. […] The comparative mortality data from these experiments is tabulated on TABLE 2."}, "[2]": {"tested_on": "irradiated left buccal cheek pouch (oral mucositis)", "experiment": "Oral mucositis scheduling study (Example 3)", "assay_type": "in vivo, hamsters", "conditions": "200 ppm thrice daily Day -1 to 14 or Day 10 to 36, relative to Day -7 to 36 or Day -1 to 36", "procedure": "In a scheduling study, an acute dose of irradiation of 40 Gy directed to the left buccal cheek pouch and the hamsters were treated t.i.d. with 200 μg/mL PAAG or vehicle control directly inserted into the pouch. Schedules included PAAG treatment Day—7 to 36, Day—1 to 36, Day—1 to 14, and Day 10-36. Mean % weight change and mucositis score were recorded. Oral mucositis scheduling study was performed as described above with PAAG (86 kDa and 30% functionalization) added to the indicated final concentrations. The mean mucositis scores for a vehicle control and 200 ppm PAAG administered thrice daily from Day—7 to 36, Day—1 to 36, Day—1 to 14, or Day 10 to 36 is shown in FIG. 7. […] dosed with 200 ppm PAAG administered thrice daily from Day—1 to 14 or from Day 10 to 36 have a reduced mean mucositis score relative to mice dosed with 200 ppm PAAG thrice daily from Day—7 to 36 or from Day—1 to 36."}}, "data": [{"substance": "poly (acetyl, arginyl) glucosamine [PAAG]", "values": [{"measurement": "survival difference between treated and untreated groups", "setting": "[1]; 12.5Gy of radiation, p=0.081", "value": "No statistical difference"}, {"measurement": "Percent Dead Per Group", "setting": "[1]; 12.5 Gy, n=16", "value": 31.25, "unit": "%"}, {"measurement": "No. of Death", "setting": "[1]; 12.5 Gy, Day 5, euthanized, n=16", "value": 1}, {"measurement": "No. of Death", "setting": "[1]; 12.5 Gy, Day 6, euthanized, n=16", "value": 1}, {"measurement": "No. of Death", "setting": "[1]; 12.5 Gy, Day 7, euthanized, n=16", "value": 3}, {"measurement": "Percent Dead Per Group", "setting": "[1]; 13.0 Gy, based on n=15", "value": "13.33^¶ Percent"}, {"measurement": "No. of Death", "setting": "[1]; 13.0 Gy, Day 6, found dead, n=15", "value": 1}, {"measurement": "No. of Death", "setting": "[1]; 13.0 Gy, Day 18, euthanized, n=15", "value": 1}, {"measurement": "survival difference vehicle versus PAAG", "setting": "[1]; LD 80 dose (13.0 Gy), p<0.0001", "value": "very significant"}, {"measurement": "treated animals survived", "setting": "[1]; LD 80 dose of radiation (13.0 Gy), untreated 19%", "value": 88, "unit": "%"}, {"measurement": "mean percent weight change", "setting": "[1]; compared with untreated animals, FIG. 2", "value": "no significant effect"}, {"measurement": "Percent Dead Per Group", "setting": "[1]; no radiation, n=5", "value": 0, "unit": "%"}, {"measurement": "No. of Death", "setting": "[1]; no radiation, n=5", "value": 0}, {"measurement": "mean mucositis score", "setting": "[2]", "value": "reduced"}]}]}
